Where two headings read alike, the source gives them in different places.
Biological target: T1, F508delCFTR (Homo sapiens, UniProt P13569, DEL508-508)
T1 construct: expressed in transfected cells; host or cells: CFBE41o- (human lung derived epithelial cell line), doxycycline-inducible expression
Experiment: Cell Surface Expression-Horse Radish Peroxidase (CSE-HRP) assay
Assay type: cell-based
Conditions: CFBE41o-F508delCFTR-HRP cells; for Maximum % activity (with co-corrector): with co-corrector (2 μM); for Maximum % activity (with co-corrector) / Maximum % activity (without co-corrector): normalized to on-plate positive control, highest concentration 20 μM
Outline: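 Surface F508delCFTR-HRP was read by luminol luminescence after 18–24 h compound exposure at 33 °C, without or with 2 μM co-corrector. Doses were eight 3-fold steps from 20 μM, in doxycycline-induced (0.5 μg/mL, 72 h) CFBE41o- cells. % activity was scaled to the on-plate 2 μM positive control minus DMSO; EC50 came from a variable-slope sigmoid fit.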

[1] = test compound without co-corrector, 18-24 hours at 33° C., read-out: EC50 (without co-corrector)
[2] = with co-corrector (2 μM of 3-[(2R,4R)-4-({[1-(2,2-difluoro-1,3-benzodioxol-5-yl)cyclopropyl]carbonyl}amino)-7-methoxy-3,4-dihydro-2H-chromen-2-yl]benzoic acid), read-out: EC50 (with co-corrector)

T1 sequence (P13569 with tags, fused parts or gaps DEL508-508): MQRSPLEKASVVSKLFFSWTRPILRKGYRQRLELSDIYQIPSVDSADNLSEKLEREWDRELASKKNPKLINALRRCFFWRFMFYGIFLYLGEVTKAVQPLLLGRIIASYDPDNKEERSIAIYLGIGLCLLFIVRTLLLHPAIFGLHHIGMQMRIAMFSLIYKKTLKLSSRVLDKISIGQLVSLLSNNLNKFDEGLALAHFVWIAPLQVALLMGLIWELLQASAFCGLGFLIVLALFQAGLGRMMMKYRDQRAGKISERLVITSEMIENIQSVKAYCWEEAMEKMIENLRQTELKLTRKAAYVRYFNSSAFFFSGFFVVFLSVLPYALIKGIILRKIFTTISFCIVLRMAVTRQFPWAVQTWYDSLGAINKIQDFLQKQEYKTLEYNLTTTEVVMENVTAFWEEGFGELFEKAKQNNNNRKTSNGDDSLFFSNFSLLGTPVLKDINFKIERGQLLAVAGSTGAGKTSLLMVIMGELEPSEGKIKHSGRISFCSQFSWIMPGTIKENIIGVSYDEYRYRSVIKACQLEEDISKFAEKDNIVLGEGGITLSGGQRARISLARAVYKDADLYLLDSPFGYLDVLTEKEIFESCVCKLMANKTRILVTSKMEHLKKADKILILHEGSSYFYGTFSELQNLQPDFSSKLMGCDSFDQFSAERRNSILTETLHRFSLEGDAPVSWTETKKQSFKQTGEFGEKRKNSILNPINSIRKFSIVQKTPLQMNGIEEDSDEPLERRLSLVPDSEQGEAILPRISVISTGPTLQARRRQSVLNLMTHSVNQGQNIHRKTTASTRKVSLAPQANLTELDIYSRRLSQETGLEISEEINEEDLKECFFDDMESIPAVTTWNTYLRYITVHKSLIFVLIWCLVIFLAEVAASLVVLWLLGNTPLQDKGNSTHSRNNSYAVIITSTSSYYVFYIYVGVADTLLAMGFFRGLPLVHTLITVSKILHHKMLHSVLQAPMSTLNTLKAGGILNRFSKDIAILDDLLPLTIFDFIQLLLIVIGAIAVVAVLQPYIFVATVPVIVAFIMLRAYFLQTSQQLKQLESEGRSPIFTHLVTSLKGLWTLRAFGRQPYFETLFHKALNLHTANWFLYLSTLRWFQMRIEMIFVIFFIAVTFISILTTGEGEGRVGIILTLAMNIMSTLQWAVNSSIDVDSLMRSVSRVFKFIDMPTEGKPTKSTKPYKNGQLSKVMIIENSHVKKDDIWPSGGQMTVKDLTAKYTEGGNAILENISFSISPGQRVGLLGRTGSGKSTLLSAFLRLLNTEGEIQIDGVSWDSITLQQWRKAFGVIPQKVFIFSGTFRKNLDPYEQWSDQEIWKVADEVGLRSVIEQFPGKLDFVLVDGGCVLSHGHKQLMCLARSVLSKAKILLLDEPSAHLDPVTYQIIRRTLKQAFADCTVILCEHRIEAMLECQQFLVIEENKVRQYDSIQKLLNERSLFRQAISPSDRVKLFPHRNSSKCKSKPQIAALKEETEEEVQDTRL

Row | Compound | EC50 [1] [µM] | EC50 [2] [µM] | Maximum % activity (with co-corrector) | Maximum % activity (without co-corrector)
1 | COc1ccc(C(F)(F)F)cc1C(O)CO[C@H]1[C@H](C(C)(C)C)[C@@H](C(=O)O)N(C(=O)[C@@H]2CCCCO2)[C@H]1c1ccccc1C (stereo partly drawn) [Example 268, (2S,3R,4S,5S)-3-tert-butyl-4-{2-hydroxy-2-[2-methoxy-5-(trifluoromethyl)phenyl]ethoxy}-5-(2-methylphenyl)-1-[(2S)-oxane-2-carbonyl]pyrrolidine-2-carboxylic acid] | 1 to 10 | 1 to 10 | +++ (≥350) | + (<100)
2 | COc1ccc(C(F)(F)F)cc1C(CO[C@H]1[C@H](C(C)(C)C)[C@@H](C(=O)O)N(C(=O)[C@@H]2CCCCO2)[C@H]1c1ccccc1C)OC (stereo partly drawn) [Example 269, (2S,3R,4S,5S)-3-tert-butyl-4-{2-methoxy-2-[2-methoxy-5-(trifluoromethyl)phenyl]ethoxy}-5-(2-methylphenyl)-1-[(2S)-oxane-2-carbonyl]pyrrolidine-2-carboxylic acid] | 1 to 10 | < 1 | +++ (≥350) | +++ (≥200)
3 | COc1ccc(C(C)(C)C)cc1CO[C@H]1[C@H](C(C)(C)OC)[C@@H](C(=O)O)N(C(=O)[C@@H]2CCCCO2)[C@H]1c1ccccc1C(C)C [Example 270, (2S,3R,4S,5S)-4-[(5-tert-butyl-2-methoxyphenyl)methoxy]-3-(2-methoxypropan-2-yl)-1-[(2S)-oxane-2-carbonyl]-5-[2-(propan-2-yl)phenyl]pyrrolidine-2-carboxylic acid] | < 1 | < 1 | +++ (≥350) | +++ (≥200)
4 | COc1ncc(C(F)(F)F)cc1CO[C@H]1[C@H](C(C)(C)C)[C@@H](C(=O)O)N(C(=O)O[C@@H](C)C(F)(F)F)[C@H]1c1cccnc1OC(C)C [Example 271, (2S,3R,4S,5S)-3-tert-butyl-4-{[2-methoxy-5-(trifluoromethyl)pyridin-3-yl]methoxy}-5-{2-[(propan-2-yl)oxy]pyridin-3-yl}-1-({[(2S)-1,1,1-trifluoropropan-2-yl]oxy}carbonyl)pyrrolidine-2-carboxylic acid] | < 1 | < 1 | +++ (≥350) | ++ (≥100 and <200)
5 | COc1ccc(C(F)(F)F)cc1[C@@H](C)CO[C@H]1[C@H](C(C)(C)C)[C@@H](C(=O)O)N(C(=O)[C@@H]2CCCCO2)[C@H]1c1ccccc1C [Example 272, (2S,3R,4S,5S)-3-tert-butyl-4-{(2R)-2-[2-methoxy-5-(trifluoromethyl)phenyl]propoxy}-5-(2-methylphenyl)-1-[(2S)-oxane-2-carbonyl]pyrrolidine-2-carboxylic acid] | < 1 | < 1 | +++ (≥350) | +++ (≥200)
6 | COc1ccc(C(F)(F)F)cc1[C@H](C)CO[C@H]1[C@H](C(C)(C)C)[C@@H](C(=O)O)N(C(=O)[C@@H]2CCCCO2)[C@H]1c1ccccc1C [Example 273, (2S,3R,4S,5S)-3-tert-butyl-4-{(2S)-2-[2-methoxy-5-(trifluoromethyl)phenyl]propoxy}-5-(2-methylphenyl)-1-[(2S)-oxane-2-carbonyl]pyrrolidine-2-carboxylic acid] | < 1 | < 1 | +++ (≥350) | +++ (≥200)
7 | COc1ccc(C(C)(C)C)cc1CO[C@H]1[C@H](C(C)(C)C)[C@@H](C(=O)O)N(C(=O)O[C@@H](C)C(F)(F)F)[C@H]1c1cccnc1OC(C)C [Example 274, (2S,3R,4S,5S)-3-tert-butyl-4-[(5-tert-butyl-2-methoxyphenyl)methoxy]-5-{2-[(propan-2-yl)oxy]pyridin-3-yl}-1-({[(2S)-1,1,1-trifluoropropan-2-yl]oxy}carbonyl)pyrrolidine-2-carboxylic acid] | < 1 | < 1 | +++ (≥350) | +++ (≥200)
8 | COc1ncc(C2CCC2)cc1CO[C@H]1[C@H](C(C)(C)C)[C@@H](C(=O)O)N(C(=O)C2(C(F)(F)F)CC2)[C@H]1c1cccnc1OC(C)C [Example 275, (2S,3R,4S,5S)-3-tert-butyl-4-[(5-cyclobutyl-2-methoxypyridin-3-yl)methoxy]-5-{2-[(propan-2-yl)oxy]pyridin-3-yl}-1-[1-(trifluoromethyl)cyclopropane-1-carbonyl]pyrrolidine-2-carboxylic acid] | > 10 | 1 to 10 | ++ (≥150 and <350) | + (<100)
9 | COc1ncc(C2CCC2)cc1CO[C@H]1[C@H](C(C)(C)C)[C@@H](C(=O)O)N(C(=O)C2(C(F)(F)F)CCCC2)[C@H]1c1cccnc1OC(C)C [Example 276, (2S,3R,4S,5S)-3-tert-butyl-4-[(5-cyclobutyl-2-methoxypyridin-3-yl)methoxy]-5-{2-[(propan-2-yl)oxy]pyridin-3-yl}-1-[1-(trifluoromethyl)cyclopentane-1-carbonyl]pyrrolidine-2-carboxylic acid] | > 10 | < 1 | ++ (≥150 and <350) | + (<100)
10 | COc1ncc(C(F)(F)F)cc1C#CCO[C@H]1[C@H](C(C)(C)C)[C@@H](C(=O)O)N(C(=O)OC(C)C)[C@H]1c1ccccc1 [Example 277, (2S,3R,4S,5S)-3-tert-butyl-4-({3-[2-methoxy-5-(trifluoromethyl)pyridin-3-yl]prop-2-yn-1-yl}oxy)-5-phenyl-1-{[(propan-2-yl)oxy]carbonyl}pyrrolidine-2-carboxylic acid] | < 1 | < 1 | +++ (≥350) | + (<100)
11 | CCc1ccccc1[C@H]1[C@@H](OCC#Cc2cc(C(F)(F)F)cnc2OC)[C@H](C(C)(C)C)[C@@H](C(=O)O)N1C(=O)[C@@H]1CCCCO1 [Example 278, (2S,3R,4S,5S)-3-tert-butyl-5-(2-ethylphenyl)-4-({3-[2-methoxy-5-(trifluoromethyl)pyridin-3-yl]prop-2-yn-1-yl}oxy)-1-[(2S)-oxane-2-carbonyl]pyrrolidine-2-carboxylic acid] | 1 to 10 | < 1 | +++ (≥350) | ++ (≥100 and <200)
12 | CC(C)Oc1ncccc1[C@H]1[C@@H](OCc2coc3ccc(C(F)(F)F)cc23)[C@H](C(C)(C)C)[C@@H](C(=O)O)N1C(=O)C1CCCCC1 [Example 279, (2S,3R,4S,5S)-3-tert-butyl-1-(cyclohexanecarbonyl)-5-{2-[(propan-2-yl)oxy]pyridin-3-yl}-4-{[5-(trifluoromethyl)-1-benzofuran-3-yl]methoxy}pyrrolidine-2-carboxylic acid] | < 1 | < 1 | +++ (≥350) | ++ (≥100 and <200)

Reference: patent publication US10399940B2, “Substituted pyrrolidines and methods of use” (AbbVie S.à.r.l., priority 2016, dated 2019)
